{"source": "ChEMBL document CHEMBL1155237", "about": "“Selective inhibitors of the mutant B-Raf pathway: discovery of a potent and orally bioavailable aminoisoquinoline” (J Med Chem, 2009)", "key": {"[1]": {"target": "Casein kinase I isoform gamma-2 (Homo sapiens) (UniProt P78368)", "test": "Inhibition of CSNK1G2 assessed as enzyme activity at 1 uM relative to untreated control", "design": "scale not given: the % may be the effect or the level left"}, "[2]": {"target": "Serine/threonine-protein kinase TAO1 (Homo sapiens) (UniProt Q7L7X3)", "test": "Inhibition of TAOK1 assessed as enzyme activity at 1 uM relative to untreated control", "design": "scale not given: the % may be the effect or the level left"}, "[3]": {"target": "MAP kinase-interacting serine/threonine-protein kinase 2 (Homo sapiens) (UniProt Q9HBH9)", "test": "Inhibition of MKNK2 assessed as enzyme activity at 1 uM relative to untreated control", "design": "scale not given: the % may be the effect or the level left"}, "[4]": {"target": "Tyrosine-protein kinase ITK/TSK (Homo sapiens) (UniProt Q08881)", "test": "Inhibition of ITK assessed as enzyme activity at 1 uM relative to untreated control", "design": "scale not given: the % may be the effect or the level left"}, "[5]": {"target": "Leukocyte tyrosine kinase receptor (Homo sapiens) (UniProt P29376)", "test": "Inhibition of LTK assessed as enzyme activity at 1 uM relative to untreated control", "design": "scale not given: the % may be the effect or the level left"}, "[6]": {"target": "Serine/threonine-protein kinase N1 (Homo sapiens) (UniProt Q16512)", "test": "Inhibition of PKN1 assessed as enzyme activity at 1 uM relative to untreated control", "design": "scale not given: the % may be the effect or the level left"}, "[7]": {"target": "Inhibitor of nuclear factor kappa-B kinase subunit alpha (Homo sapiens) (UniProt O15111)", "test": "Inhibition of IKK-alpha assessed as enzyme activity at 1 uM relative to untreated control", "design": "scale not given: the % may be the effect or the level left"}, "[8]": {"target": "Serine/threonine-protein kinase 36 (Homo sapiens) (UniProt Q9NRP7)", "test": "Inhibition of STK36 assessed as enzyme activity at 1 uM relative to untreated control", "design": "scale not given: the % may be the effect or the level left"}, "[9]": {"target": "Bone morphogenetic protein receptor type-2 (Homo sapiens) (UniProt Q13873)", "sequence (Q13873 whole entry)": "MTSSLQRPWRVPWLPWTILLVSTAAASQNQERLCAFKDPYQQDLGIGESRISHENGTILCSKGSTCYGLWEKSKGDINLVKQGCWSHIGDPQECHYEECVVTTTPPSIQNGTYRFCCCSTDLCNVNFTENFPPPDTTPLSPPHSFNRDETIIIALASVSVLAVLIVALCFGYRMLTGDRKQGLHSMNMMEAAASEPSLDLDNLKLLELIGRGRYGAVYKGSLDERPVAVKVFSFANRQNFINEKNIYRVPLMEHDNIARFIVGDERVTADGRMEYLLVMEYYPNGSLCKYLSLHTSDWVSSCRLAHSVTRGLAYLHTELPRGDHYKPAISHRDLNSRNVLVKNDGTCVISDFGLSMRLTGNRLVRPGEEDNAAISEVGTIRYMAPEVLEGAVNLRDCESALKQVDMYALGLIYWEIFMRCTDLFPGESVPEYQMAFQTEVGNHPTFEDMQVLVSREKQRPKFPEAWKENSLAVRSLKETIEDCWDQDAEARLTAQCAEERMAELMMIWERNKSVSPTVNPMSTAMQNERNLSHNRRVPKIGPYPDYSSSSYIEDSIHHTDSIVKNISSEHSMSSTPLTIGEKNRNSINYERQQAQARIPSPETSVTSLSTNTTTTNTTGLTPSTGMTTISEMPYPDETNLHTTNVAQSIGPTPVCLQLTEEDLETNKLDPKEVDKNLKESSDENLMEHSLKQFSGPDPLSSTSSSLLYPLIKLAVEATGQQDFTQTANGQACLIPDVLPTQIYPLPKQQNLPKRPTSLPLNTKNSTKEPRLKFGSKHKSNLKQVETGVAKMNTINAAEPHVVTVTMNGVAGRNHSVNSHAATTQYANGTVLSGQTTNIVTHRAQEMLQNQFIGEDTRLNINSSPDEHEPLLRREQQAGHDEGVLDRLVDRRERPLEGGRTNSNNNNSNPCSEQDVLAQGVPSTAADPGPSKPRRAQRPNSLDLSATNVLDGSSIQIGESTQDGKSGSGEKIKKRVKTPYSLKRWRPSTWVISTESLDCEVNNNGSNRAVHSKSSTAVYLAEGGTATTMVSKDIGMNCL", "test": "Inhibition of BMPR2 assessed as enzyme activity at 1 uM relative to untreated control", "design": "scale not given: the % may be the effect or the level left"}, "[10]": {"target": "Phosphorylase b kinase gamma catalytic chain, liver/testis isoform (Homo sapiens) (UniProt P15735)", "test": "Inhibition of PHKG2 assessed as enzyme activity at 1 uM relative to untreated control", "design": "scale not given: the % may be the effect or the level left"}, "[11]": {"target": "Insulin receptor-related protein (Homo sapiens) (UniProt P14616)", "test": "Inhibition of INSRR assessed as enzyme activity at 1 uM relative to untreated control", "design": "scale not given: the % may be the effect or the level left"}, "[12]": {"target": "Dual specificity mitogen-activated protein kinase kinase 2 (Homo sapiens) (UniProt P36507)", "test": "Inhibition of MEK2 assessed as enzyme activity at 1 uM relative to untreated control", "design": "scale not given: the % may be the effect or the level left"}, "[13]": {"tested_on": "Tyrosine-protein kinase ABL1 (Homo sapiens), P00519 [M351T]", "test": "Inhibition of ABL1 M351T mutant assessed as enzyme activity at 1 uM relative to untreated control", "design": "scale not given: the % may be the effect or the level left"}, "[14]": {"target": "Ephrin type-B receptor 1 (Homo sapiens) (UniProt P54762)", "sequence (P54762 whole entry)": "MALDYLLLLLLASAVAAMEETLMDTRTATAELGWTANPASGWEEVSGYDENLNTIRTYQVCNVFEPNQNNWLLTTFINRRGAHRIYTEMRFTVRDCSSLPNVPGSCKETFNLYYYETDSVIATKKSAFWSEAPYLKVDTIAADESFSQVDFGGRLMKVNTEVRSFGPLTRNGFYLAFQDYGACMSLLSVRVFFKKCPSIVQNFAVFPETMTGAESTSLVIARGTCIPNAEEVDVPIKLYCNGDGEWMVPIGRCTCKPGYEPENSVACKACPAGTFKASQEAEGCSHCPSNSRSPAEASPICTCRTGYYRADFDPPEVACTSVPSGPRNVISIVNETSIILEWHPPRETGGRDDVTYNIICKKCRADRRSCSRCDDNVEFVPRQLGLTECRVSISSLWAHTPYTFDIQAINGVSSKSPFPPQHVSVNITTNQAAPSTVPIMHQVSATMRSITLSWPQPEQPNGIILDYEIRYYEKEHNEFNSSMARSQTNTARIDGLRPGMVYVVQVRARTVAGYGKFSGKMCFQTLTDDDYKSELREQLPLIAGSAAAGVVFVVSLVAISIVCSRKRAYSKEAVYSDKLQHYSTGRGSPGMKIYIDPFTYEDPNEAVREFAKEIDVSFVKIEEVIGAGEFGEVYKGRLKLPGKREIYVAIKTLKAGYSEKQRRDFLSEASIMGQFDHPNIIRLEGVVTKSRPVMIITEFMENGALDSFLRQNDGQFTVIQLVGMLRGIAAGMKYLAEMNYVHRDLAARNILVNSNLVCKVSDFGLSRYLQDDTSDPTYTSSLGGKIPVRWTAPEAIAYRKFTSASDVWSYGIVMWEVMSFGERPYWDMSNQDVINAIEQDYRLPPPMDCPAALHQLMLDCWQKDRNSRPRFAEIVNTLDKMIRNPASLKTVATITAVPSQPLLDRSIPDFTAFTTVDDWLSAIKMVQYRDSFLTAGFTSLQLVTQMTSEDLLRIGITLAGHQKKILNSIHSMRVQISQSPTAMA", "test": "Inhibition of EPHB1 assessed as enzyme activity at 1 uM relative to untreated control", "design": "scale not given: the % may be the effect or the level left"}, "[15]": {"target": "MAP/microtubule affinity-regulating kinase 4 (Homo sapiens) (UniProt Q96L34)", "test": "Inhibition of MARK4 assessed as enzyme activity at 1 uM relative to untreated control", "design": "scale not given: the % may be the effect or the level left"}, "[16]": {"test": "Elimination half life in Sprague-Dawley rat at 2 mg/kg, iv and 5 mg/kg, po", "type": "ADME, organism-based", "settings": "in vivo, read-out: beta t1/2 (converted)"}, "[17]": {"test": "Inhibition of FLT3 ITD assessed as enzyme activity at 1 uM relative to untreated control", "design": "scale not given: the % may be the effect or the level left"}, "[18]": {"target": "Aurora kinase B (Homo sapiens) (UniProt Q96GD4)", "test": "Inhibition of AURKB assessed as enzyme activity at 1 uM relative to untreated control", "design": "scale not given: the % may be the effect or the level left"}, "[19]": {"target": "Ephrin type-A receptor 8 (Homo sapiens) (UniProt P29322)", "test": "Inhibition of EPHA8 assessed as enzyme activity at 1 uM relative to untreated control", "design": "scale not given: the % may be the effect or the level left"}, "[20]": {"target": "Phosphatidylinositol 4,5-bisphosphate 3-kinase catalytic subunit delta isoform (Homo sapiens) (UniProt O00329)", "test": "Inhibition of PIK3CD assessed as enzyme activity at 1 uM relative to untreated control", "design": "scale not given: the % may be the effect or the level left"}, "[21]": {"target": "cGMP-dependent protein kinase 1 (Homo sapiens) (UniProt Q13976)", "test": "Inhibition of PRKG1 assessed as enzyme activity at 1 uM relative to untreated control", "design": "scale not given: the % may be the effect or the level left"}, "[22]": {"target": "Serine/threonine-protein kinase PLK3 (Homo sapiens) (UniProt Q9H4B4)", "test": "Inhibition of PLK3 assessed as enzyme activity at 1 uM relative to untreated control", "design": "scale not given: the % may be the effect or the level left"}, "[23]": {"tested_on": "Receptor-type tyrosine-protein kinase FLT3 (Homo sapiens), P36888 [D835Y]", "test": "Inhibition of FLT3 D835Y mutant assessed as enzyme activity at 1 uM relative to untreated control", "design": "scale not given: the % may be the effect or the level left"}, "[24]": {"target": "Tyrosine-protein kinase Fgr (Homo sapiens) (UniProt P09769)", "test": "Inhibition of FGR assessed as enzyme activity at 1 uM relative to untreated control", "design": "scale not given: the % may be the effect or the level left"}, "[25]": {"target": "RAC-gamma serine/threonine-protein kinase (Homo sapiens) (UniProt Q9Y243)", "test": "Inhibition of AKT3 assessed as enzyme activity at 1 uM relative to untreated control", "design": "scale not given: the % may be the effect or the level left"}, "[26]": {"target": "TGF-beta receptor type-1 (Homo sapiens) (UniProt P36897)", "test": "Inhibition of TGFBR1 assessed as enzyme activity at 1 uM relative to untreated control", "design": "scale not given: the % may be the effect or the level left"}, "[27]": {"target": "Glycogen synthase kinase-3 beta (Homo sapiens) (UniProt P49841)", "sequence (P49841 whole entry, looked up)": "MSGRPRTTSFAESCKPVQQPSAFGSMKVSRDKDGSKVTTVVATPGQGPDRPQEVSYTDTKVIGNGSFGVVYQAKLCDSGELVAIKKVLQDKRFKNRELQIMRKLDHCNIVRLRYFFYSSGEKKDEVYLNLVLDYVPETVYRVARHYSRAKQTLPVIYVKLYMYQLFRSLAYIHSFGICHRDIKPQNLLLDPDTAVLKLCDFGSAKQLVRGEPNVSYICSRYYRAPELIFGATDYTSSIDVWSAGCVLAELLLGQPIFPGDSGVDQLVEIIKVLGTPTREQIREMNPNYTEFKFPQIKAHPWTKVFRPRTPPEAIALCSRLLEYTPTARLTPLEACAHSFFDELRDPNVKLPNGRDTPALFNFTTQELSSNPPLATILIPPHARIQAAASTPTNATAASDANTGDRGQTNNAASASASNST", "test": "Inhibition of GSK3B assessed as enzyme activity at 1 uM relative to untreated control", "design": "scale not given: the % may be the effect or the level left"}, "[28]": {"target": "Fibroblast growth factor receptor 2 (Homo sapiens) (UniProt P21802)", "sequence (P21802 22-821 limits assumed)": "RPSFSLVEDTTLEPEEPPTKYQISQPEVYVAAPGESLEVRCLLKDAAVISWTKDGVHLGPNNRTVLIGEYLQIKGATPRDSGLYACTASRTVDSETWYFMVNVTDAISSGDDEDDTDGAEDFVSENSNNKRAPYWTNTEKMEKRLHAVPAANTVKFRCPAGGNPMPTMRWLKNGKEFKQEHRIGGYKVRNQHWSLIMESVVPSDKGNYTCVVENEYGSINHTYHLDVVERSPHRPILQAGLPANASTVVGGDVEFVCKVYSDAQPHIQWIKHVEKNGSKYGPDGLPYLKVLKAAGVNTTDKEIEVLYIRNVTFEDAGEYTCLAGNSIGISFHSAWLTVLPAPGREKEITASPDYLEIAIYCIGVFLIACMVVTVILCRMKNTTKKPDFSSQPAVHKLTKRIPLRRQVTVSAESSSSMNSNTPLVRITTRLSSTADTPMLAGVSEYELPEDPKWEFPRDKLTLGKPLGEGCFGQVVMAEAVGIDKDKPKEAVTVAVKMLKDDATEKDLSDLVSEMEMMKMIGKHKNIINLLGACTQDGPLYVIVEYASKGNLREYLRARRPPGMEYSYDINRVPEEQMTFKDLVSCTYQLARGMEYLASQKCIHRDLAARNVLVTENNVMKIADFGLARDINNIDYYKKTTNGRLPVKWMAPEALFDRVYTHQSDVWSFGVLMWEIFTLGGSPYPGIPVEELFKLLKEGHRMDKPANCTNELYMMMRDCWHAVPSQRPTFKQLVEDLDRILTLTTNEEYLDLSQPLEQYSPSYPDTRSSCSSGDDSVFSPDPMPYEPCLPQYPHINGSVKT", "test": "Inhibition of FGFR2 assessed as enzyme activity at 1 uM relative to untreated control", "design": "scale not given: the % may be the effect or the level left"}, "[29]": {"tested_on": "Mast/stem cell growth factor receptor Kit (Homo sapiens), P10721 [V559D]", "test": "Inhibition of KIT V559D mutant assessed as enzyme activity at 1 uM relative to untreated control", "design": "scale not given: the % may be the effect or the level left"}, "[30]": {"target": "LIM domain kinase 1 (Homo sapiens) (UniProt P53667)", "test": "Inhibition of LIMK1 assessed as enzyme activity at 1 uM relative to untreated control", "design": "scale not given: the % may be the effect or the level left"}, "[31]": {"test": "Volume of distribution at steady state in CD1 mouse", "type": "ADME, organism-based", "settings": "in vivo, read-out: Vdss"}, "[32]": {"target": "Serine/threonine-protein kinase ULK3 (Homo sapiens) (UniProt Q6PHR2)", "test": "Inhibition of ULK3 assessed as enzyme activity at 1 uM relative to untreated control", "design": "scale not given: the % may be the effect or the level left"}, "[33]": {"target": "Mitogen-activated protein kinase 3 (Homo sapiens) (UniProt P27361)", "test": "Inhibition of ERK1 assessed as enzyme activity at 1 uM relative to untreated control", "design": "scale not given: the % may be the effect or the level left"}, "[34]": {"target": "Serine/threonine-protein kinase 38-like (Homo sapiens) (UniProt Q9Y2H1)", "test": "Inhibition of NDR2 assessed as enzyme activity at 1 uM relative to untreated control", "design": "scale not given: the % may be the effect or the level left"}, "[35]": {"target": "Ephrin type-A receptor 2 (Homo sapiens) (UniProt P29317)", "test": "Inhibition of EPHA2 assessed as enzyme activity at 1 uM relative to untreated control", "design": "scale not given: the % may be the effect or the level left"}, "[36]": {"target": "Receptor-type tyrosine-protein kinase FLT3 (Homo sapiens) (UniProt P36888)", "test": "Inhibition of FLT3 assessed as enzyme activity at 1 uM relative to untreated control", "design": "scale not given: the % may be the effect or the level left"}, "[37]": {"target": "Protein-tyrosine kinase 2-beta (Homo sapiens) (UniProt Q14289)", "sequence (Q14289 whole entry, looked up)": "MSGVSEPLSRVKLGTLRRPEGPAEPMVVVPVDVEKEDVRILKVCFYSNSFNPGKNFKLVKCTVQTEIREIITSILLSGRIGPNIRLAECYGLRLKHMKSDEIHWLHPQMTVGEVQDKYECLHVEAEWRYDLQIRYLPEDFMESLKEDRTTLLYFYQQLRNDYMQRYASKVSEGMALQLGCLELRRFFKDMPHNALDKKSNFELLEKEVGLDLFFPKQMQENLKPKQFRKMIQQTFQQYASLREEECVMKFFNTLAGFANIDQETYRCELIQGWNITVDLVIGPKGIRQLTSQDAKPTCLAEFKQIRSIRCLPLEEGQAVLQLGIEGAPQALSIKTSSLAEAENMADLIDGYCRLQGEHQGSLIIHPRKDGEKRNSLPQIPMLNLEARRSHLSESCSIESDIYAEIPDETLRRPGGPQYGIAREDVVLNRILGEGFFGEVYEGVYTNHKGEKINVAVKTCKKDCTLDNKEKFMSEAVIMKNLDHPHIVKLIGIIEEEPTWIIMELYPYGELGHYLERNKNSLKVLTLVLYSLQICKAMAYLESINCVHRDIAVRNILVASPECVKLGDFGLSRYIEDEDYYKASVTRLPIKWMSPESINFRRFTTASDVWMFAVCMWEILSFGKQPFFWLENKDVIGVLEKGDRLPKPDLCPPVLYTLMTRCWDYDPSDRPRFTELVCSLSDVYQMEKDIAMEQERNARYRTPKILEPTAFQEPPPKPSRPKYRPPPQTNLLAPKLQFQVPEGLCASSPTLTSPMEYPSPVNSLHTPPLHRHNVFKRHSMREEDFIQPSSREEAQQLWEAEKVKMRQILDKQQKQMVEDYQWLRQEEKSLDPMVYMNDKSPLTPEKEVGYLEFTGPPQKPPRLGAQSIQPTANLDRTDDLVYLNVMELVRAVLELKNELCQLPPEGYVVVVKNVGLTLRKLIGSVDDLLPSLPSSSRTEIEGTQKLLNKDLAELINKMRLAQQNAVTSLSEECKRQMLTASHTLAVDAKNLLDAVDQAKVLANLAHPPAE", "test": "Inhibition of PTK2B assessed as enzyme activity at 1 uM relative to untreated control", "design": "scale not given: the % may be the effect or the level left"}, "[38]": {"target": "Serine/threonine-protein kinase DCLK3 (Homo sapiens) (UniProt Q9C098)", "sequence (Q9C098 whole entry)": "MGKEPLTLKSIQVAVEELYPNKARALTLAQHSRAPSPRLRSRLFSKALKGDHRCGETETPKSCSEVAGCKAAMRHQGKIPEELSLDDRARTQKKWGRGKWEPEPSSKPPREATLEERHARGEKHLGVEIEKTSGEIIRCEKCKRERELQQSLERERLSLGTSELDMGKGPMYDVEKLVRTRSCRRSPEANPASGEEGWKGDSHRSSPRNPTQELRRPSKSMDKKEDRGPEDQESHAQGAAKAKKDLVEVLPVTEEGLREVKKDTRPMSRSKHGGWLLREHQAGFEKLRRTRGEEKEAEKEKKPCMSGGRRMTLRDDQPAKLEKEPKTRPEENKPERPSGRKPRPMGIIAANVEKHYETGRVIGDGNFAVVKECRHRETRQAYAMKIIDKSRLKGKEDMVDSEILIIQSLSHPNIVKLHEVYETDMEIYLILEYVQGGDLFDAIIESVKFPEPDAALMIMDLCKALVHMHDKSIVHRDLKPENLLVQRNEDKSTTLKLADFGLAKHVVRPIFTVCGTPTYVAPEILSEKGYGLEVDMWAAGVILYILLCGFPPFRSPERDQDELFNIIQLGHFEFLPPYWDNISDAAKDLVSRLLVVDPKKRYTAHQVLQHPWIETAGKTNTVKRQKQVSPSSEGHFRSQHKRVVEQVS", "test": "Inhibition of DCAMKL3 assessed as enzyme activity at 1 uM relative to untreated control", "design": "scale not given: the % may be the effect or the level left"}}, "data": [{"compound": "Cc1ccc2c(Nc3ccc(Cl)cc3)nccc2c1Nc1ncccc1-c1ncnc2[nH]cnc12.Cl.Cl.Cl", "values": [{"measurement": "Activity", "setting": "[1]", "value": 100, "unit": "%"}, {"measurement": "Activity", "setting": "[2]", "value": 88, "unit": "%"}, {"measurement": "Activity", "setting": "[3]", "value": 100, "unit": "%"}, {"measurement": "Activity", "setting": "[4]", "value": 100, "unit": "%"}, {"measurement": "Activity", "setting": "[5]", "value": 20, "unit": "%"}, {"measurement": "Activity", "setting": "[6]", "value": 100, "unit": "%"}, {"measurement": "Activity", "setting": "[7]", "value": 100, "unit": "%"}, {"measurement": "Activity", "setting": "[8]", "value": 92, "unit": "%"}, {"measurement": "Activity", "setting": "[9]", "value": 100, "unit": "%"}, {"measurement": "Activity", "setting": "[10]", "value": 100, "unit": "%"}, {"measurement": "Activity", "setting": "[11]", "value": 78, "unit": "%"}, {"measurement": "Activity", "setting": "[12]", "value": 99, "unit": "%"}, {"measurement": "Activity", "setting": "[13]", "value": 45, "unit": "%"}, {"measurement": "Activity", "setting": "[14]", "value": 2, "unit": "%"}, {"measurement": "Activity", "setting": "[15]", "value": 100, "unit": "%"}, {"measurement": "half-life", "setting": "[16]", "value": 3.5, "unit": "h"}, {"measurement": "Activity", "setting": "[17]", "value": 92, "unit": "%"}, {"measurement": "Activity", "setting": "[18]", "value": 85, "unit": "%"}, {"measurement": "Activity", "setting": "[19]", "value": 0.45, "unit": "%"}, {"measurement": "Activity", "setting": "[20]", "value": 100, "unit": "%"}, {"measurement": "Activity", "setting": "[21]", "value": 93, "unit": "%"}, {"measurement": "Activity", "setting": "[22]", "value": 98, "unit": "%"}, {"measurement": "Activity", "setting": "[23]", "value": 92, "unit": "%"}, {"measurement": "Activity", "setting": "[24]", "value": 100, "unit": "%"}, {"measurement": "Activity", "setting": "[25]", "value": 96, "unit": "%"}, {"measurement": "Activity", "setting": "[26]", "value": 89, "unit": "%"}, {"measurement": "Activity", "setting": "[27]", "value": 100, "unit": "%"}, {"measurement": "Activity", "setting": "[28]", "value": 38, "unit": "%"}, {"measurement": "Activity", "setting": "[29]", "value": 36, "unit": "%"}, {"measurement": "Activity", "setting": "[30]", "value": 55, "unit": "%"}, {"measurement": "Vd", "setting": "[31]", "value": 1.1, "unit": "L/kg"}, {"measurement": "Activity", "setting": "[32]", "value": 100, "unit": "%"}, {"measurement": "Activity", "setting": "[33]", "value": 100, "unit": "%"}, {"measurement": "Activity", "setting": "[34]", "value": 100, "unit": "%"}, {"measurement": "Activity", "setting": "[35]", "value": 2.8, "unit": "%"}, {"measurement": "Activity", "setting": "[36]", "value": 62, "unit": "%"}, {"measurement": "Activity", "setting": "[37]", "value": 40, "unit": "%"}, {"measurement": "Activity", "setting": "[38]", "value": 100, "unit": "%"}]}]}
